Results taken from patent US9566265B2, “Carbazole compounds and therapeutic uses of the compounds” (Incuron, LLC, priority 2008, dated 2017).
Where two headings read alike, the source gives them in different places. Each block holds one molecule with its values, some of them ahead of it.

How the values were obtained:
[1] = system: p53; assay: p53 activation assay, p53 responsive luciferase reporter cell line; type: cell-based, human; conditions: for p53 activation, active or inactive carbazole: structural analysis, FIGS. 6 and 7
Experimental: The potency of a present carbazole compound is determined by measuring an ability of the compound to inhibit NF-κB activity or to activate p53. […] Theoretically, such assays of the dose-response effect of activator compounds can be described as a sigmoidal curve expressing a degree of activation as a function of concentration. The curve also theoretically passes through a point at which the concentration is sufficient to increase activity to a level that is 50% that of the difference between a baseline and the maximal activity in the assay. […] Determination of an EC50 value is made using conventional biochemical (acellular) assay techniques or cell-based assay techniques.
The potency of a carbazole compound is determined by measuring an ability of the compound to activate p53.
The p53 activation assay for determination of the EC50 value was performed as follows:
HT1080-L (human fibrosarcoma cells with ConALuc reporter)
RCC45ConALuc (human renal cell carcinoma cell line with ConALuc reporter)
1. Two types of standard cells were used, either HT1080-L or RCC45ConALuc cells. Both cell lines stably express a p53 responsive luciferase reporter construct.
2. HT1080-L cells were grown in DMEM medium containing 10% FBS. RCC45ConALuc cells were grown in RPMI medium containing 10% FBS (Pen/Strep can be added to a final concentration of 1%, if desired). Both cell lines were grown in a humidified incubator at 37° C. with 5% CO2. For normal culturing, both cell lines were split using 1× trypsin-EDTA at a ratio of 1:20 for HT1080-L and 1:5 for RCC45ConALuc cells every 3-4 days (when cells are 80-90% confluent).
3. A day before the experiment, the cells are trypsinized for about 5 minutes in 1× tripsin/EDTA solution in 37° C. incubator and plated in 96 well plates. HT1080-L cells were seeded at a density of 1×10^4/well in standard DMEM medium in a volume of 50 μl. RCC45ConALuc were seeded at a density of 2×10^4/well in the volume of 50 uL in standard RPMI medium.
4. The next day, various carbazole compounds were prepared by dilution of stock solutions in standard DMEM medium such that the cells were treated with the final chemical concentrations in Table 1 below. Stock solutions were made up in DMSO. Typically, chemicals were made up as 20 mM stock solutions.
5. Each tested compound used two rows of a 96-well plate, thus four compounds (e.g., W, X, Y, Z) were tested in one plate simultaneously. In addition to test compounds, each plate included positive and negative controls. As positive control, 9aa was used at a dose of 3 μM. As a negative control, DMSO was used in final concentration 0.1%.
1. Dilutions of chemicals added to the plate were made up as 2× concentrations in standard DMEM and added to corresponding well in a volume of 50 μl.
2. Chemicals were diluted in standard DMEM by two time serial dilutions starting from 40 μM (2× of highest concentration, e.g., 20 μM). For one cell line, the minimum volume was 125 μL of 2× working solution of chemical of each concentration in standard DMEM.
4. Sixteen hours following compound addition, all wells with the highest concentrations of compounds are checked microscopically for the presence of toxic effect, because death of cells caused by compounds may not allow detecting luciferase activity. If cytotoxocity is evident, other doses of the same compounds were checked for the presence of toxicity. The lowest dose causing toxic effect was recorded.
5. After microscopic examination, 15 μl of Bright Glo luciferase assay system were added to each well and after 5 min incubation at RT, the plates were read on a 96 well plate luminometer with a measurement time of 0.1 sec. A shaking step was included before measurement.
6. The folds of luciferase activation for each concentration of each chemical were calculated by dividing the detected luciferase activity at each chemical concentration by the average of the luciferase activity for the DMSO control on the same plate.

[2] = system: Bacillus subtilis; assay: antibacterial cytotoxicity assay, gram(+) bacteria (OD600); type: cell-based; conditions: B. subtilis, 48 hours, over a range of potencies; FIG. 13B
Experimental: In vitro test to evaluate the effect of carbazole compounds on gram(-) and gram(+) bacteria. Two days prior to the start of the cytotoxicity assay, inoculate DH5-α and B. subtilis into 1 ml of corresponding media from glycerol stocks. Allow to grow during the course of the day at 37° C. with shaking. Streak each bacteria on the appropriate agar plates using a sterile inoculation loop and allow to grow overnight at 37° C. in the bacteria incubator. Using a sterile inoculation loop, pick a single colony of bacteria and inoculate 5 ml of the corresponding media in a 14 ml snap cap tube. Grow overnight ( 16 h) at 37° C. with shaking. […] Dilute 5 ml cultures of DH5-α and B. subtilis to an OD600 nm of 0.002, which corresponds to about 2×10^6 cells/ml in a volume sufficient for the experiment (dependent on the number of plates). Plate out 50 μl into each well of X 96-well plates (X=# plates needed for a given experiment). […] Chemicals for testing are prepared by dilution of stock solutions in LB Broth or Nutrient Broth for DH5-α and B. subtilis studies, respectively. Cells are treated with the final chemical concentrations presented in the scheme below (Table 2). Stock solutions are made up in DMSO. […] However, this concentration is dependent on the solubility of a given chemical and actual stock concentrations must be noted at time of experiment. Each library chemical to be tested requires 2 rows of a 96-well plate, thus 4 chemicals ([…]) can be tested in one plate simultaneously. In addition to test chemicals, each plate should include positive and negative controls. As positive control, ampicillin is used at 100 μg/ml. […] Dilutions of chemicals to be added to the plate are made up as 2× concentrations in appropriate bacteria media and added to corresponding wells in a volume of 50 μl. […] This process is repeated until all 10 2× doses are prepared. […] Following the addition of carbazole compounds to 96-well plates containing bacteria, plates are transferred to the 37° C. bacteria incubator for 48 hours. After the incubation, the OD600 mm for each well of the 96-well plates will be measured. […] The % DMSO control is plotted vs compound concentration to generate sigmoid shaped curves. After three runs are complete, the raw data for all three runs is used for IC50 calculations.

[3] = system: HB 101 E. coli; assay: antibacterial cytotoxicity assay, gram(−) bacteria (OD600); type: cell-based; conditions: 48 hours, over a range of potencies, FIG. 13A
[4] = system: Bloodstream T. brucei; assay: T. brucei bloodstream form in vitro killing; type: cell-based, Trypanosoma brucei; conditions: Trypanosoma brucei, read-out: IC50 (concentration that killed 50% of the parasites); bloodstream stage, 48 hrs of culture
Experimental: Preliminary T. brucei inactivation experiments were performed in vitro. The life cycle of T. brucei involves a “procyclic” developmental stage in a tsetse fly, and a “bloodstream” form in humans. All studies were performed with the bloodstream stage of the parasite, because it is the disease-causing developmental stage.
Suramin, a conventional anti-HAT drug, was used as a positive control.
Bloodstream T. brucei was seeded (3×10^3 cells/mL) in 24-well (500 uL of the media per well) plate. […] Control cultures received equal volumes of DMSO.

[5] = system: Plasmodium falciparum (strain D10); assay: Plasmodium falciparum in vitro culture, infected erythrocytes; type: cell-based; conditions: tested at 29, 57, 143 nM or 143 nM only; FIG. 12
Experimental: In particular, the effect of carbazole compounds on the malaria parasite was tested by culturing Plasmodium falciparum (strain D10) in vitro in the presence or absence of test compounds.
In each experiment, 1000 erythrocytes were assessed microscopically to determine the number of infected cells.

[6] = system: Caki1 human renal cell carcinoma cells; assay: Caki1 renal cell carcinoma xenograft efficacy test; conditions: Day 24 (end of treatment); oral gavage 5 day on/2 day off; Example 7 30, Example 15 5, Example 13 25, Sunitinib 40 mg/kg
[7] = Homo sapiens, 16 h, HT1080-L or RCC45ConALuc reporter cells, 16 h, read-out: EC50 value (p53 activation)
[8] = HT1080-L or RCC45ConALuc reporter cells, 16 h, read-out: EC50 value (p53 activation)
[9] = Homo sapiens, HT1080-L or RCC45ConALuc reporter cells, 16 h, read-out: EC50 value (p53 activation)
[10] = Table 3, test compounds of the malaria experiment

EC50 [1, 7]: 0.08 µM
SMILES: CC(=O)c1ccc2c(c1)c1c3c(ccc1n2CCC1CCCN1C)C(=O)CC3 (stereo not drawn) [Compound 18c-1]
antibacterial effect [2]: antibacterial effect
antibacterial effect [3]: antibacterial effect

EC50 ([1]; Homo sapiens, 16 h, read-out: EC50 value (p53 activation, μM)): 0.07 µM
SMILES: CC(=O)c1cc2c3c4c(ccc3n(CCCN(C)C)c2cc1O)C(=O)CC4 [Example 4, 9-Acetyl-6-[3-(dimethylamino)propyl]-8-hydroxy-1,6-dihydrocyclopenta[c]carbazol-3(2H)-one]
antibacterial effect [2]: antibacterial effect
antibacterial effect [3]: antibacterial effect

EC50 [1, 7]: 0.49 µM
SMILES: CC(=O)c1ccc2c(c1)c1cc(C(C)=O)ccc1n2CCCN(C)C [Compound 3b]

EC50 [1, 8]: 0.53 µM
SMILES: CCN(CC)CCn1c2ccccc2c2cc(C(C)=O)c(O)cc21 [Compound 22, 3-Acetyl-2-hydroxy-9-N,N-diethylaminoethylcarbazole]

EC50 [1, 7]: 0.29 µM
SMILES: CCN(CC)CCn1c2ccc(C(C)=O)cc2c2cc(C(C)=O)ccc21 [Compound 3a]

EC50 [1, 7]: 0.4 µM
SMILES: CCN(CC)CCn1c2ccc(C(C)=O)cc2c2cc(C(C)=O)c(O)cc21 [Compound 19a]

EC50 ([1]; Homo sapiens, Table 3, test compounds of the malaria experiment, read-out: EC50, μM (p53 activation assay)): ~5 µM
SMILES: CCN(CC)CCCC(C)Nc1c2ccc(Cl)cc2nc2ccc(OC)cc12 (stereo not drawn) [Quinacrine, reference compound]

EC50 [1, 7]: 0.05 µM
SMILES: CCCNCCCn1c2ccc3c(c2c2c4c(ccc21)C(=O)CC4)CCC3=O [Example 14]

EC50, μM (p53 activation assay) [1, 10]: Inactive
SMILES: CCN(CC)CCn1c2ccccc2c2cc(C(C)=O)ncc21.Cl [Compound 400, reference compound]
anti-malarial activity, parasitemia reduction [5]: no parasitemia reduction

EC50 [1, 7]: 0.64 µM
SMILES: CCC(=O)c1ccc2c(c1)c1cc(C(=O)CC)ccc1n2CCCN(C)C [Compound 7d]

EC50 [1, 7]: 0.1 µM
SMILES: CC(=O)c1ccc2c(c1)c1c3c(ccc1n2CC[C@@H]1CCCN1C)C(=O)CC3 [Compound 18c-2]

EC50 [1, 7]: 0.07 µM
SMILES: CC(=O)c1cc2c3c4c(ccc3n(CCCN(C)C)c2cc1O)C(=O)N(C)C4 [Compound 19e]

EC50 [1, 7]: 0.54 µM
SMILES: CCN(CC)CCn1c2ccc(C(=O)NC)cc2c2cc(C(=O)NC)ccc21 [Example 27]

Further lines, the molecule ahead of its results:

SMILES: CN(C)CCCN(c1ccccc1)c1ccc2c(c1)CCC2=O [Compound 200, reference compound]
p53 activation, active or inactive carbazole [1]: inactive

SMILES: Cc1ccc(C(=O)Nc2ccc(S(=O)(=O)O)c3cc(S(=O)(=O)O)cc(S(=O)(=O)O)c23)cc1NC(=O)c1cccc(NC(=O)Nc2cccc(C(=O)Nc3cc(C(=O)Nc4ccc(S(=O)(=O)O)c5cc(S(=O)(=O)O)cc(S(=O)(=O)O)c45)ccc3C)c2)c1 [Suramin, reference compound]
IC50 [4]: > 300 nM

SMILES: CC(=O)c1cc2c3cc(C(C)=O)c(O)cc3n(CCCN(C)C)c2cc1O [Example 12]
antibacterial effect [2]: antibacterial effect
antibacterial effect [3]: antibacterial effect

SMILES: CN(C)CCCn1c2ccc([N+](=O)[O-])cc2c2cc([N+](=O)[O-])ccc21 [Example 21]
EC50 [1, 8]: 0.83 µM

SMILES: CCN(CC)CCn1c2ccc(C(C)=O)cc2c2cc(C(C)=O)ncc21 [Compound 300, reference compound]
p53 activation, active or inactive carbazole [1]: active

SMILES: CC(=O)c1ccc2c(c1)c1cc(C(C)=O)ccc1n2CCC1CCCN1C (stereo not drawn) [Example 2, 1,1′-{9-[2-(1-Methylpyrrolidin-2-yl)ethyl]-9H-carbazole-3,6-diyl}diethanone]
EC50 ([1]; Homo sapiens, read-out: EC50, μM (p53 activation assay)): 0.64 µM
EC50 [1, 9]: 0.64 µM
p53 activation, active or inactive carbazole [1]: active
anti-malarial activity, parasitemia reduction [5]: anti-malarial activity comparable to quinacrine

SMILES: CC(=O)c1ccc2c(c1)c1cc(C(C)=O)ccc1n2CCC1CCCN1C (stereo not drawn) [Compound 3e]
EC50 [1, 7]: 0.78 µM

SMILES: CNCCCn1c2ccc([N+](=O)[O-])cc2c2cc([N+](=O)[O-])ccc21 [Example 25]
EC50 [1, 9]: 0.88 µM

SMILES: CCN(CC)CCNC(=O)c1c(C)[nH]c(/C=C2\C(=O)Nc3ccc(F)cc32)c1C [Sunitinib, reference compound]
tumor growth inhibition compared to the vehicle control [6]: 42%

SMILES: CCN(CC)CCCn1c2ccc([N+](=O)[O-])cc2c2cc([N+](=O)[O-])ccc21 [Example 23]
EC50 [1, 9]: 0.88 µM

SMILES: CCCCCn1c2ccc(C(C)=O)cc2c2c3c(ccc21)C(=O)CC3 [Compound 500, reference compound]
EC50, μM (p53 activation assay) [1, 10]: Inactive
anti-malarial activity, parasitemia reduction [5]: no parasitemia reduction

SMILES: CCCNCCCn1c2ccc(C(C)=O)cc2c2c3c(ccc21)C(=O)CC3 [Example 6, 9-Acetyl-6-[3-(propylamino)propyl]-1,6-dihydrocyclopenta[c]carbazol-3(2H)-one]
EC50 [1, 8]: 0.24 µM

SMILES: O=[N+]([O-])c1ccc2c(c1)c1cc([N+](=O)[O-])ccc1n2CCCN1CCCC1 [Example 24]
EC50 [1, 9]: 0.78 µM
